Reference: patent US20220281888A1, “BICYCLIC CARBOXYLATES AS MODULATORS OF TRANSPORTERS AND USES THEREOF” (NIROGY THERAPEUTICS, INC., priority 2019, published 2022)

How the values were obtained:
[1] = system: monocarboxylate transporters; assay: Lactate detection assay in tumor cell lines; format: cell-based; details: intracellular lactate, Lactate-glo kit, 24 hours incubation; cell line not stated
Procedure: Cells are maintained in their appropriate growth medium (RPMI medium with 2 g/L glucose, 2 mM L-glutamine supplemented with 10% FBS and P/S (growth medium). 15,000-25,000 cells were seeded into white 96-well plates in growth medium and incubated for 24 hours at 37° C. and 5% CO2. A duplicate plate was also seeded for normalization by an MTS assay. Dry weight compound stocks were dissolved to a concentration of 10 mM in 100% DMSO. Compounds were further diluted in the assay medium (Lactate media: 10 mM lactate, 5% FBS, and 1×P/S; Glucose media: RPMI, 5% FBS, and 1×P/S). Growth media was changed 24 hours later to assay medium containing 10 μM compound or vehicle (DMSO) control and incubated for 24 hours. Conditioned media was collected and the cells were washed in 200 μL ice-cold PBS. […] After a 5 minute incubation, 12.5 μL Neutralization solution (1 M Trizma) is incubated for 1 minute. Intracellular lactate measurements were performed using a Lactate-glo kit (Promega). Briefly, the lactate detection reagent is mixed immediately before use and 50 μL is pipetted into each well and incubated at room temperature for 1 hour. Lactate is oxidized by enzymatic reactions to generate light. The luminescence is recorded using a Spectramax M5e plate reader and the concentration of lactate is determined using a known concentration of spiked lactate in PBS using GraphPad Prism.

[2] = system: panel of solid and haematological tumor cell lines (e.g., Hs578t, SiHa, MDA-MB-231); assay: MTS cell proliferation assay; format: cell-based; details: 72-96 hours incubation, 10 mM lactate medium or RPMI 1640 medium, cell line not given, read-out: Cytotoxicity [IC50: μM]
Procedure: The anti-proliferation effect of MCT inhibition was investigated across a panel of solid and haematological tumor cell lines. Cells were routinely cultured in their appropriate growth medium. On day 1, between 10,000-25,000 cells/well (e.g., Hs578t: 15,000 cells/well, SiHa: 10,000 cells/well, and MDA-MB-231: 25,000 cells/well) were plated into 96-well plates. 100 μL of phosphate buffered saline solution was added to the external wells to prevent media evaporation. Plates were incubated in growth medium overnight at 37° C. in the presence of 5% CO2. On day 2, dry weight compound stocks were dissolved to a concentration of 10 mM in 100% DMSO. Compounds were further diluted in the assay medium; 10 mM lactate medium (without glucose, pyruvate, and glutamine) or RPMI 1640 medium (without pyruvate and glutamine) to generate a final dose range of 1 nM to 10 μM. Growth medium in the 96-well plate was replaced with the assay medium (10 mM lactate medium or RPMI medium or appropriate medium), and compounds were added to each well in the plate at different concentrations via serial dilution or pre-prepared solutions in assay medium. […] The absorbance of the plates was read on a Spectramax M5e plate reader using […] measurement wavelength. Dose response curves were plotted and IC50 values were calculated using GraphPad Prism. […]

SMILES | IC50 [1] [µM] | IC50 [2] [µM]
CN(C(=O)NC1CCCCC1)c1cc2oc(=O)c(C(=O)O)cc2s1 [Example 7, 2-(3-cyclohexyl-1-methylureido)-5-oxo-5H-thieno[3,2-b]pyran-6-carboxylic acid] | < 1 | –
CCOc1ccccc1NC(=O)N(C)c1cc2oc(=O)c(C(=O)O)cc2s1 [Example 10, 2-(3-(2-ethoxyphenyl)-1-methylureido)-5-oxo-5H-thieno[3,2-b]pyran-6-carboxylic acid] | < 1 | –
COc1cc(Cl)ccc1NC(=O)N(C)c1cc2oc(=O)c(C(=O)O)cc2s1 [Example 18, 2-(3-(4-chloro-2-methoxyphenyl)-1-methylureido)-5-oxo-5H-thieno[3,2-b]pyran-6-carboxylic acid] | – | < 1
CN(C(=O)Nc1ccc(Cl)c(Cl)c1)c1cc2oc(=O)c(C(=O)O)cc2s1 [Example 39, 2-(3-(3,4-dichlorophenyl)-1-methylureido)-5-oxo-5H-thieno[3,2-b]pyran-6-carboxylic acid] | – | < 1
